Measured values reported in the NIST ThermoML archive (doi:10.1016/j.fluid.2012.01.031).
± gives the expanded uncertainty stated by the source.

Details: Crystal; DTA

Structure (SMILES): c1ccc2c(c1)Cc1ccccc1-2 [fluorene]
- Normal melting temperature: 114.38 ± 0.41 °C

Structure (SMILES): c1ccc2c(c1)oc1ccccc12 [dibenzo[bd]furan]
- Normal melting temperature: 82.51 ± 0.41 °C
